Test system: TDP-43 aggregation
Experiment: TDP-43 aggregation assay in SY5Y TDP-43WT cells (high content imaging)
Format: cell-based
Conditions: Homo sapiens, tetracycline induction 24 hrs, 1 hour compound pre-treatment, sodium arsenite 23 hrs, 8-point dose curve, percentage of cells with TDP-43 aggregates, read-out: IC50, Inhibition of TDP-43 Aggregation
Method: Exemplary compounds disclosed herein were evaluated for efficacy in inhibiting TDP-43 inclusions cellular imaging-based assays.
The cellular model was in human neuroblastoma SH SYSY cells (ATCC, cat #: CRL-2266). The parent cell line was first engineered to stably express a tetracycline repressor protein (designated as TREx-SY5Y cells, customer cell line development by ThermoFisher). Wild-type human TDP-43 with a C-terminus eGFP tag was synthesized and cloned into pcDNA5/TO expression vector (ThermoFisher). The plasmid was transfected into TREx-SY5Y cells using Lipofectamine 2000 and hygromycin resistant colonies were selected. Expression of TDP-43WT::eGFP was examined under fluorescent microscopy and Western blot upon tetracycline induction. The clone that was used for TDP-43 aggregation assay is referred to as SY5Y TDP-43WT cells hereafter.
Compound inhibition of TDP-43 aggregation was tested in an 8-point dose curve in 96-well format. Briefly, TDP-43WT::eGFP expression was induced with […] for 24 hrs (SY5Y TDP-43WT cells). The cells were then pre-treated for 1 hour with exemplary compounds before adding sodium arsenite to a final concentration of […] and incubated for another 23 hrs. At the end of the treatment the cell monolayers were washed in PBS and fixed in 4% paraformaldehyde (PFA), diluted from 16% stock (Electron Microscopy Sciences cat: #15710-S). The inhibitory effect on TDP-43 aggregation was measured using CellInsight CX7 high content imager (ThermoFisher). The percentage of cells with TDP-43 aggregates was calculated based on the total number of cells identified by DAPI staining. An 8-point dose response curve was generated, and the IC50 for each compound tested was determined (Table 3).
In Table 3 below, A indicates an IC50 (nM)<500 nM, B indicates an IC50 (nM) 500 nM to <1000 nM, C indicates an IC50 (nM) 1000 nM to <2000 nM, D indicates an IC50 (nM) 2000 nM to <6000 nM, and E indicates an IC50 (nM) 6000 nM to ≤10000 nM.

IC50 [nM] | SMILES
500 to 1000 | Cc1cc(-c2ccc(C3CCN(C4CCNC4)CC3)cc2)sc1C(=O)N1CC[C@H](N)C1 (stereo partly drawn) [Compound 171, ((S)-3-aminopyrrolidin-1-yl)(3-methyl-5-(4-(1-(pyrrolidin-3-yl)piperidin-4-yl)phenyl)thiophen-2-yl)methanone]
< 500 | Cc1cc(-c2ccc(C3CCN(C4CSC4)CC3)cc2)sc1C(=O)N1CC[C@H](N)C1 [Compound 172, (S)-(3-aminopyrrolidin-1-yl){3-methyl-5-[4-(1-thietan-3-ylpiperidin-4-yl)phenyl]thiophen-2-yl} methanone]
1000 to 2000 | Cc1cc(-c2ccc(C3CCN(C4CNC4)CC3)cc2)sc1C(=O)N1CC[C@H](N)C1 [Compound 174, (S)-(3-aminopyrrolidin-1-yl)(5-(4-(1-(azetidin-3-yl)piperidin-4-yl)phenyl)-3-methylthiophen-2-yl)methanone]
2000 to 6000 | Cc1cc(-c2ccc(N3CCC(C)CC3)cc2)sc1C(=O)N1CC[C@H](N)C1 [Compound 184, (S)-(3-aminopyrrolidin-1-yl)(3-methyl-5-(4-(4-methylpiperidin-1-yl)phenyl)thiophen-2-yl)methanone]
500 to 1000 | Cc1cc(-c2ccc(C3(N(C)C)CCC3)cc2)sc1C(=O)N1CC[C@H](N)C1 [Compound 187, (S)-(3-aminopyrrolidin-1-yl)(5-(4-(1-(dimethylamino)cyclobutyl)phenyl)-3-methylthiophen-2-yl)methanone]
< 500 | Cc1cc(-c2ccc3c(c2)CCC3N(C)C)sc1C(=O)N1CC[C@H](N)C1 (stereo partly drawn) [Compound 188, ((S)-3-aminopyrrolidin-1-yl)(5-(1-(dimethylamino)-2,3-dihydro-1H-inden-5-yl)-3-methylthiophen-2-yl)methanone]
500 to 1000 | Cc1cc(-c2ccc(C3(N(C)C)CCCC3)cc2)sc1C(=O)N1CC[C@H](N)C1 [Compound 193, (S)-(3-aminopyrrolidin-1-yl){5[4-(1-dimethylaminocyclopentyl)phenyl]-3-methylthiophen-2-yl}methanone]
1000 to 2000 | Cc1cc(-c2ccc3c(c2)COCC3)sc1C(=O)N1CC[C@H](N)C1 [Compound 195, (S)-(3-aminopyrrolidin-1-yl)[5-(isochroman-7-yl)-3-methylthiophen-2-yl]methanone]
6000 to 10000 | CCc1ccc(-c2cc(C)c(C(=O)N3CC[C@H](N)C3)s2)cc1C [Compound 220]
1000 to 2000 | Cc1cnc(-c2cc(C)c(C(=O)N3CC[C@H](N)C3)s2)cn1 [Compound 223]
6000 to 10000 | Cc1cc(-c2ccc(C3=CCCCC3)cc2)sc1C(=O)N1CC[C@H](N)C1 [Compound 224]
< 500 | Cc1ccc(-c2cc(C)c(C(=O)N3CC[C@H](N)C3)s2)cc1 [Compound 225]
500 to 1000 | CCc1ccc(-c2cc(C)c(C(=O)N3CC[C@H](N)C3)s2)cc1 [Compound 228]
500 to 1000 | Cc1cc(-c2ccc3c(c2)CCCO3)sc1C(=O)N1CC[C@H](N)C1 [Compound 229]
2000 to 6000 | Cc1cc(-c2ccc(C(C)C)cc2)sc1C(=O)N1CC[C@H](N)C1 [Compound 230]
6000 to 10000 | CCc1ccc(-c2sc(C(=O)N3CC[C@H](N)C3)c(C)c2C)cc1 [Compound 233]

The next lines start with the molecule.

SMILES | IC50 [nM]
Cc1cc(-c2ccc(N3CCN(C4COC4)CC3)cc2)sc1C(=O)N1CC[C@H](N)C1 [Compound 154, (S)-(3-aminopyrrolidin-1-yl)(3-methyl-5-(4-(4-(oxetan-3-yl)piperazin-1-yl)phenyl)thiophen-2-yl)methanone] | 500 to 1000
CCc1cc(-c2cc(C)c(C(=O)N3CC[C@H](N)C3)s2)ccc1C1CCOCC1 [Compound 157, (S)-(3-aminopyrrolidin-1-yl)(5-(3-ethyl-4-(tetrahydro-2H-pyran-4-yl)phenyl)-3-methylthiophen-2-yl)methanone] | 6000 to 10000
Cc1cc(-c2ccc(C3CCN(C4CN(C)C4)CC3)cc2)sc1C(=O)N1CC[C@H](N)C1 [Compound 173, (S)-(3-aminopyrrolidin-1-yl)(3-methyl-5-(4-(1-(1-methylazetidin-3-yl)piperidin-4-yl)phenyl)thiophen-2-yl)methanone] | < 500
Cc1cc(-c2ccc(C3CCN(C4CC4)CC3)cc2)sc1C(=O)N1CC[C@H](N)C1 [Compound 175, (S)-(3-aminopyrrolidin-1-yl)(5-(4-(1-cyclopropylpiperidin-4-yl)phenyl)-3-methylthiophen-2-yl)methanone] | < 500
Cc1cc(-c2ccc(C3CCN(C4CCNCC4)CC3)cc2)sc1C(=O)N1CC[C@H](N)C1 [Compound 177, (S)-(5-(4-([1,4′-bipiperidin]-4-yl)phenyl)-3-methylthiophen-2-yl)(3-aminopyrrolidin-1-yl)methanone] | 500 to 1000
Cc1cc(-c2ccc(N3CCN(C)CC3)cc2)sc1C(=O)N1CC[C@H](N)C1 [Compound 185, (S)-(3-aminopyrrolidin-1-yl)(3-methyl-5-(4-(4-methylpiperazin-1-yl)phenyl)thiophen-2-yl)methanone] | < 500
Cc1cc(-c2ccc3c(c2)CCCC3N(C)C)sc1C(=O)N1CC[C@H](N)C1 (stereo partly drawn) [Compound 186, ((S)-3-aminopyrrolidin-1-yl)(5-(5-(dimethylamino)-5,6,7,8-tetrahydronaphthalen-2-yl)-3-methylthiophen-2-yl)methanone] | 2000 to 6000
Cc1cc(-c2ccc3c(c2)CN(C)CC3)sc1C(=O)N1CC[C@H](N)C1 [Compound 189] | < 500
Cc1cc(-c2ccc(C(C)(C)N(C)C)cc2)sc1C(=O)N1CC[C@H](N)C1 [Compound 190, (S)-(3-aminopyrrolidin-1-yl)(5-(4-(2-(dimethylamino)propan-2-yl)phenyl)-3-methylthiophen-2-yl)methanone] | < 500
Cc1cc(-c2ccc3c(c2)CCN(C)C3)sc1C(=O)N1CC[C@H](N)C1 [Compound 191, (S)-(3-aminopyrrolidin-1-yl)(3-methyl-5-(2-methyl-1,2,3,4-tetrahydroisoquinolin-6-yl)thiophen-2-yl)methanone] | < 500
Cc1cc(-c2ccc(C3(N(C)C)CCCCC3)cc2)sc1C(=O)N1CC[C@H](N)C1 [Compound 192, (S)-(3-aminopyrrolidin-1-yl){5-[4-(1-dimethylaminocyclohexyl)phenyl]-3-methylthiophen-2-yl}methanone] | 2000 to 6000
Cc1cc(-c2ccc3c(c2)OCCC3)sc1C(=O)N1CC[C@H](N)C1 [Compound 194, (S)-(3-aminopyrrolidin-1-yl)(5-(chroman-7-yl)-3-methylthiophen-2-yl)methanone] | 500 to 1000
Cc1cc(-c2ccc3c(c2)N(C)CCC3)sc1C(=O)N1CC[C@H](N)C1 [Compound 196, (S)-(3-aminopyrrolidin-1-yl)(3-methyl-5-(1-methyl-1,2,3,4-tetrahydroquinolin-7-yl)thiophen-2-yl)methanone] | 6000 to 10000
Cc1cc(-c2ccc3c(c2)NCCC3)sc1C(=O)N1CC[C@H](N)C1 [Compound 197, (S)-(3-aminopyrrolidin-1-yl)(3-methyl-5-(1,2,3,4-tetrahydroquinolin-7-yl)thiophen-2-yl)methanone] | 1000 to 2000
Cc1cc(-c2ccc(COC3CCOCC3)cc2)sc1C(=O)N1CC[C@H](N)C1 [Compound 202, (S)-(3-aminopyrrolidin-1-yl)(3-methyl-5-(4-((tetrahydro-2H-pyran-4-yloxy)methyl)phenyl)thiophen-2-yl)methanone] | 1000 to 2000
Cc1cc(-c2ccc(COC3CCCCC3)cc2)sc1C(=O)N1CC[C@H](N)C1 [Compound 203, (S)-(3-aminopyrrolidin-1-yl){5-[4-(cyclohexyloxymethyl)phenyl]-3-methylthiophen-2-yl}methanone] | 2000 to 6000
Cc1cc(-c2ccc(COc3ccccc3)cc2)sc1C(=O)N1CC[C@H](N)C1 [Compound 204, (S)-(3-aminopyrrolidin-1-yl){3-methyl-5-[4-(phenoxymethyl)phenyl]thiophen-2-yl}methanone] | 6000 to 10000
Cc1cc(-c2ccc(C3CCNCC3)cc2)sc1C(=O)N1CC[C@H](N)C1 [Compound 205, (S)-(3-aminopyrrolidin-1-yl){3-methyl-5-[4-(piperidin-4-yl)phenyl]thiophen-2-yl}methanone] | 500 to 1000
CNCc1ccc(-c2cc(C)c(C(=O)N3CC[C@H](N)C3)s2)cc1 [Compound 218] | < 500
Cc1cc(-c2ccc(CN)cc2)sc1C(=O)N1CC[C@H](N)C1 [Compound 219] | < 500
CCCc1ccc(-c2cc(C)c(C(=O)N3CC[C@H](N)C3)s2)cc1 [Compound 227] | 2000 to 6000
Cc1cc(-c2ccc(C3CCC3)cc2)sc1C(=O)N1CC[C@H](N)C1 [Compound 232] | 500 to 1000
Cc1cc(-c2ccc(-c3ccccc3)cc2)sc1C(=O)N1CC[C@H](N)C1 [Compound 234] | 2000 to 6000
Cc1cc(-c2ccc(C3COC3)cc2)sc1C(=O)N1CC[C@H](N)C1 [Compound 235] | < 500

From US20260258025A1, “INHIBITORS OF TDP-43 AND TAU AGGREGATION” (Aquinnah Pharmaceuticals, inc., priority 2023, published 2026)
